Source: US20090264433A1, “Compounds, Compositions and Methods Comprising Triazine Derivatives” (Institute for OneWorld Health, priority 2008, published 2009)
Where “and” joins values, the source holds several entries; their conditions need not be identical. Equal values may be shown once.

What follows are compounds tested on mice (CD1 strain), CTX-injected small intestinal loops. Conditions: mouse, in vivo.
With `Oc1c(Br)cc(-c2cnc(OCc3ccc(Cl)cc3)nn2)cc1Br` [Compound 20, 2,6-dibromo-4-(3-(4-chlorobenzyloxy)-1,2,4-triazin-6-yl)phenol] the “closed loop % inhibition” value was 87.6%.
`Oc1c(Br)cc(-c2cnc(COc3cccc(Cl)c3Cl)nn2)cc1Br` [Compound 30, 2,6-dibromo-4-(3-((2,3-dichlorophenoxy)methyl)-1,2,4-triazin-6-yl)phenol] was tested, and the “closed loop % inhibition” value was 94.4%.
For `Oc1c(Cl)cc(-c2cnc(C(O)(c3ccccc3)c3ccccc3)nn2)cc1Cl` [Compound 36, 2,6-dichloro-4-(3-(hydroxydiphenylmethyl)-1,2,4-triazin-6-yl)phenol], the “closed loop % inhibition” value was 74.9% and 62.1%.
`Oc1c(Br)cc(-c2cnc(OCCc3ccccc3)nn2)cc1Br` [Compound 96, 2,6-dibromo-4-(3-phenethoxy-1,2,4-triazin-6-yl)phenol] was tested, and the “closed loop % inhibition” value was 78.6%.
`Oc1c(Cl)cc(-c2cnc(OCc3ccccc3F)nn2)cc1Cl` [Compound 127, 2,6-dichloro-4-(3-(2-fluorobenzyloxy)-1,2,4-triazin-6-yl)phenol] was tested, and the “closed loop % inhibition” value was 70.2% and 62.7%.
